Measurements taken from US12714736B2, “Methods for preventing an immunoglobulin e-related disease” (MY-OR DIAGNOSTICS LTD., priority 2019, dated 2026).

System: Staphylococcus epidermidis
Experiment: Anti/pro microbial study: Staphylococcus epidermidis cultured on a plate comprising acemannan
Format: cell-based
Conditions: culture plate, Acemannan 0.2% (w/w) vs control (double-distilled water), FIG. 1
Method: FIG. 1 includes a micrograph of culture plate of Staphylococcus epidermidis. The bacteria were cultured on the plate in presence of either Acemannan (0.2% (w/w)) or control (double-distilled water).
The inventors examined the activity of a composition comprising acemannan. The inventors performed an anti/pro microbial study, by culturing Staphylococcus epidermidis on a plate comprising acemannan. S. epidermidis is a skin resident who is known to play an important role in immune training and pathogen resistance. […] This supports the inventors' notion that the herein disclosed cream supports healthy colonization of the skin microbiome.

Substance: Acemannan
- growth of S. epidermidis: Comparable levels of bacterial growth
- growth of S. epidermidis (listed as acemannan): did not affect the growth of S. epidermidis
